In article PMC12866986 (European journal of medicinal chemistry, 2026):
Where “and” joins values, the source holds several entries; their conditions need not be identical. Equal values may be shown once. Read-outs that look alike come from different tables or passages of the source.

Legend:
[1] = target: FAK (Homo sapiens, UniProt Q05397); conditions: 1 h, relative to vehicle control, n = 8 measurements
[2] = cited from earlier work
[3] = PBS at pH = 7.4
[4] = after four days of continuous administration; cited from earlier work
[5] = at concentrations 10,000x higher than the effective dose; cited from earlier work
[6] = for Clint: intrinsic clearance; for MLM t1/2: mouse liver microsomes
[7] = test system: Caco-2 cells; conditions: for wound closure with proliferation inhibited: 100 nM, 4 mM hydroxyurea, 24 h, Caco-2 monolayers, n=33–35, p<0.05 vs vehicle; for EC50: read-out: EC50 (nM), ± SEM, wound healing, Caco-2 assay
[8] = cited from earlier work; remark: listed apart in the source
[9] = target: hERG (Homo sapiens, UniProt Q12809); conditions: at 30 μM
[10] = rat plasma

Sequence of FAK (Q05397 whole entry): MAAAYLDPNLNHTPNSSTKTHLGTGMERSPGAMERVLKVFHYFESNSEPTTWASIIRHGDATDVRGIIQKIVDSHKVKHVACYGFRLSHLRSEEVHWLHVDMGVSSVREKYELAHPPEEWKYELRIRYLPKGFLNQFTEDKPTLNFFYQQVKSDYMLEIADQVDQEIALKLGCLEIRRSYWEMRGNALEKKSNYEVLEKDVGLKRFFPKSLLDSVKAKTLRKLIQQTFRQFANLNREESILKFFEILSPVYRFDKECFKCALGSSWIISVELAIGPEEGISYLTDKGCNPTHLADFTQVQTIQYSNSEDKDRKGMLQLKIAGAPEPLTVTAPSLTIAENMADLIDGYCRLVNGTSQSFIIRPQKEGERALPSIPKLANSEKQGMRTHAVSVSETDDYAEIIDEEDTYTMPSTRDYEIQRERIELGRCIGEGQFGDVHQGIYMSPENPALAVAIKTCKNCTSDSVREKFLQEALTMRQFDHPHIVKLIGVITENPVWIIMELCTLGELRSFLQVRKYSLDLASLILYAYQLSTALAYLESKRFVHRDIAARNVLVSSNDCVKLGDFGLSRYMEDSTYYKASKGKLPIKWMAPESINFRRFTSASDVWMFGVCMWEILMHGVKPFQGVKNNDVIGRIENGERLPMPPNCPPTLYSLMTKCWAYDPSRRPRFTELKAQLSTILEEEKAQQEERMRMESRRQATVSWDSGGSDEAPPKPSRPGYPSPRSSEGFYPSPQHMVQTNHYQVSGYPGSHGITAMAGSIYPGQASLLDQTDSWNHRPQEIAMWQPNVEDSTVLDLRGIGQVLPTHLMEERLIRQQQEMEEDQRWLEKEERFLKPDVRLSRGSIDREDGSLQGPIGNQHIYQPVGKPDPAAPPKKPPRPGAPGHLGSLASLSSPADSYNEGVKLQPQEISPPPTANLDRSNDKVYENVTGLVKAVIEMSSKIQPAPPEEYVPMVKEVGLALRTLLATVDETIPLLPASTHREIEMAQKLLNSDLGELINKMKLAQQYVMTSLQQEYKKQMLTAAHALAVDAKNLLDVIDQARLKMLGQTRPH
Sequence of hERG (Q12809 whole entry): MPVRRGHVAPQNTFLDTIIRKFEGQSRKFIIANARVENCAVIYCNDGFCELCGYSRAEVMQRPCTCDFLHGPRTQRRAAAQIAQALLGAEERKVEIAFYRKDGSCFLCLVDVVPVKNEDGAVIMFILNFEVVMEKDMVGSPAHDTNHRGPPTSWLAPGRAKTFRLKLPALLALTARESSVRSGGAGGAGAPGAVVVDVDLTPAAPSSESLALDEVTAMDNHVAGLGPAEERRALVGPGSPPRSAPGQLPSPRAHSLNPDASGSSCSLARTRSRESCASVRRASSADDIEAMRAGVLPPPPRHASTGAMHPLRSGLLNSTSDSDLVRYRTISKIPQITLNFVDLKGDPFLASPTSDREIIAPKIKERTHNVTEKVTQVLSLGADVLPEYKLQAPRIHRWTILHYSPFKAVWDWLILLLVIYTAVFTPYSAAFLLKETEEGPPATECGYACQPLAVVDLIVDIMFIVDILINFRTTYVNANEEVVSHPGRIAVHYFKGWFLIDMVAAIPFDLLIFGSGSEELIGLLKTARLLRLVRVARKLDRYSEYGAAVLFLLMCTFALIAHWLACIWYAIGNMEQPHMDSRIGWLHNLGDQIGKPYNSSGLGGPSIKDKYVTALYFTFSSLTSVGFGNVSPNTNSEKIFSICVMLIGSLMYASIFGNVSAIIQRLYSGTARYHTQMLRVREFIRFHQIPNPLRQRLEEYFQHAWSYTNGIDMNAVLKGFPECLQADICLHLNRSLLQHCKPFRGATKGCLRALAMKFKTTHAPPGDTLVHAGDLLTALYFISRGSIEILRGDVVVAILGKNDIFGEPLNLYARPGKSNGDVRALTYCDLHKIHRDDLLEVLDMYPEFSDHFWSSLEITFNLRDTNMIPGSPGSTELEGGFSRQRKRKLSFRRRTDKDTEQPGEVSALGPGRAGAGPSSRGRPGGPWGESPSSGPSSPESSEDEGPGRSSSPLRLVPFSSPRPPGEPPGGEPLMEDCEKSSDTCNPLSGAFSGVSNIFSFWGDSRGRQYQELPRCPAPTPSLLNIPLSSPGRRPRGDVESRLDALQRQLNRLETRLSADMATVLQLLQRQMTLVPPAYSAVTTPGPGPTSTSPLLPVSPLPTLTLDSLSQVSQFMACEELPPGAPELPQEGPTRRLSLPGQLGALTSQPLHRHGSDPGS

| SMILES | FAK-Tyr-397/FAK fold change, ± SEM ([1]; 100 nM) | other results |
| --- | --- | --- |
| CN(C)C(CNC(=O)Nc1cc(C(F)(F)F)ccc1N1CCOCC1)c1ccccn1.Cl (stereo not shown) [Compound 5cHCl, 1-(2-(Dimethylamino)-2-(pyridin-2-yl)ethyl)-3-(2-morpholino-5-(trifluoromethyl)phenyl)urea hydrochloric salt] | 0.98±0.07 fold change |  |
| CN(C)C(CNC(=O)Nc1cc(C(F)(F)F)ccc1N1CCOCC1)c1cccnc1 (stereo not shown) [Compound 5b, 1-(2-(Dimethylamino)-2-(pyridin-3-yl)ethyl)-3-(2-morpholino-5-(trifluoromethyl)phenyl)urea] | 1.0±0.04 fold change |  |
| CN(C)C(CNC(=O)Nc1cc(F)ccc1N1CCOCC1)c1ccncc1 (stereo not shown) [Compound 10b, 1-(2-(Dimethylamino)-2-(pyridin-4-yl)ethyl)-3-(5-fluoro-2-morpholinophenyl)urea] | 1.12 fold change and 1.12±0.05 fold change |  |
| COC(=O)C(Cc1ccncc1)NC(=O)Nc1cc(C(F)(F)F)ccc1N1CCOCC1 (stereo not shown) [Compound 9a, Methyl 2-(3-(2-Morpholino-5-(trifluoromethyl)phenyl)ureido)-3-(pyridin-4-yl)propanoate] | 1.03±0.08 fold change |  |
| Cl.O=C(NCCc1ccncc1)Nc1cc(C(F)(F)F)ccc1N1CCOCC1 [Compound 7HCl, 1-(2-Morpholino-5-(trifluoromethyl)phenyl)-3-(2-(pyridin-4-yl)ethyl)urea hydrochloric salt] | 0.91±0.13 fold change |  |
| COCCNC(=O)C(Cc1ccncc1)NC(=O)Nc1cc(C(F)(F)F)ccc1N1CCOCC1 (stereo not shown) [Compound 9b, N-(2-Methoxyethyl)-2-(3-(2-morpholino-5-(trifluoromethyl)phenyl)ureido)-3-(pyridin-4-yl)propanamide] | 0.97±0.08 fold change |  |
| O=C(NCCc1ccncc1)Nc1cc(C(F)(F)F)ccc1N1CCOCC1 [Compound 7, 1-(2-Morpholino-5-(trifluoromethyl)phenyl)-3-(2-(pyridin-4-yl)ethyl)urea] | 0.98±0.07 fold change |  |
| COCCOCCOCCOc1ccc(N2CCOCC2)c(NC(=O)NCC(c2ccncc2)N(C)C)c1 (stereo not shown) [Compound 10l, 1-(2-(Dimethylamino)-2-(pyridin-4-yl)ethyl)-3-(5-(2-(2-(2-methoxyethoxy)ethoxy)ethoxy)-2-morpholinophenyl)urea] | 1.13±0.1 fold change |  |
| CN(C)C(CNC(=O)Nc1cc(C#N)ccc1N1CCOCC1)c1ccncc1 (stereo not shown) [Compound 10d, 1-(5-Cyano-2-morpholinophenyl)-3-(2-(dimethylamino)-2-(pyridin-4-yl)ethyl)urea] | 0.83±0.07 fold change |  |
| COCCOCCOc1ccc(N2CCOCC2)c(NC(=O)NCC(c2ccncc2)N(C)C)c1 (stereo not shown) [Compound 10k, 1-(2-(Dimethylamino)-2-(pyridin-4-yl)ethyl)-3-(5-(2-(2-methoxyethoxy)ethoxy)-2-morpholinophenyl)urea] | 1.32±0.03 fold change |  |
| Cc1ccc(N2CCOCC2)c(NC(=O)NCC(c2ccncc2)N(C)C)c1 (stereo not shown) [Compound 10c, 1-(2-(Dimethylamino)-2-(pyridin-4-yl)ethyl)-3-(5-methyl-2-morpholinophenyl)urea] | 0.89±0.05 fold change |  |
| O=C(NCCc1cnccn1)Nc1cc(C(F)(F)F)ccc1N1CCOCC1 [Compound 8, 1-(2-Morpholino-5-(trifluoromethyl)phenyl)-3-(2-(pyrazin-2-yl)ethyl)urea] | 0.93±0.08 fold change |  |
| CN(C)C(CNC(=O)Nc1cc(C(F)(F)F)ccc1N1CCOCC1)c1ccccn1 (stereo not shown) [Compound 5c, 1-(2-(Dimethylamino)-2-(pyridin-2-yl)ethyl)-3-(2-morpholino-5-(trifluoromethyl)phenyl)urea] | 0.84±0.11 fold change |  |
| CN(C)C(CNC(=O)Nc1cc(C(F)F)ccc1N1CCOCC1)c1ccncc1 (stereo not shown) [Compound 10f, 1-(5-(Difluoromethyl)-2-morpholinophenyl)-3-(2-(dimethylamino)-2-(pyridin-4-yl)ethyl)urea] | 1.2±0.08 fold change |  |
| Cl.O=C(NCCc1cnccn1)Nc1cc(C(F)(F)F)ccc1N1CCOCC1 [Compound 8HCl, 1-(2-Morpholino-5-(trifluoromethyl)phenyl)-3-(2-(pyrazin-2-yl)ethyl)urea hydrochloric salt] | 1.05±0.07 fold change |  |
| COCOc1ccc(N2CCOCC2)c(NC(=O)NCC(c2ccncc2)N(C)C)c1 (stereo not shown) [Compound 10i, 1-(2-(Dimethylamino)-2-(pyridin-4-yl)ethyl)-3-(5-(methoxymethoxy)-2-morpholinophenyl)urea] | 1.28±0.1 fold change |  |
| CN(C)C(CNC(=O)Nc1cc(Cl)ccc1N1CCOCC1)c1ccncc1 (stereo not shown) [Compound 10e, 1-(5-Chloro-2-morpholinophenyl)-3-(2-(dimethylamino)-2-(pyridin-4-yl)ethyl)urea] | 0.82±0.06 fold change |  |
| CC(C)(CNC(=O)Nc1cc(C(F)(F)F)ccc1N1CCOCC1)c1ccncc1.Cl [Compound 6HCl, 1-(2-Methyl-2-(pyridin-4-yl)propyl)-3-(2-morpholino-5-(trifluoromethyl)phenyl)urea hydrochloric salt] | 1.11±0.12 fold change |  |
| CN(C)C(CNC(=O)Nc1ccccc1N1CCOCC1)c1ccncc1 (stereo not shown) [Compound 10a, 1-(2-(Dimethylamino)-2-(pyridin-4-yl)ethyl)-3-(2-morpholinophenyl)urea] | 1.23±0.07 fold change |  |
| CN(C)C(CNC(=O)Nc1cc(OC(F)(F)F)ccc1N1CCOCC1)c1ccncc1 (stereo not shown) [Compound 10g, 1-(2-(Dimethylamino)-2-(pyridin-4-yl)ethyl)-3-(2-morpholino-5-(trifluoromethoxy)phenyl)urea] | 1.12±0.03 fold change |  |
| COCCOc1ccc(N2CCOCC2)c(NC(=O)NCC(c2ccncc2)N(C)C)c1 (stereo not shown) [Compound 10j, 1-(2-(Dimethylamino)-2-(pyridin-4-yl)ethyl)-3-(5-(2-methoxyethoxy)-2-morpholinophenyl)urea] | 1.05±0.1 fold change |  |
| CN(C)C(CNC(=O)Nc1cc(OCCOCCO)ccc1N1CCOCC1)c1ccncc1 (stereo not shown) [Compound 10m, 1-(2-(Dimethylamino)-2-(pyridin-4-yl)ethyl)-3-(5-(2-(2-hydroxyethoxy)ethoxy)-2-morpholinophenyl)urea] | 0.93±0.1 fold change |  |
| CN(C)C(CNC(=O)Nc1cc(C(F)(F)F)ccc1N1CCOCC1)c1ccncc1.Cl (stereo not shown) [Compound 5aHCl, 1-(2-(dimethylamino)-2-(pyridin-4-yl)ethyl)-3-(2-morpholino-5-(trifluoromethyl)phenyl)urea hydrochloric salt] |  | water solubility [2]: water-soluble; Solubility [3]: 1074 µg/mL; in vivo toxicity [4]: no in vivo toxicity; in vitro cytotoxicity [5]: no in vitro cytotoxicity; Clint [6]: > 307 uL/min/mg protein; MLM t1/2 [6]: < 4.51 min; wound closure with proliferation inhibited [7]: accelerated; EC50 [7]: 3.01 ± 0.52 nM; oral bioavailability [8]: orally bioavailable; hERG Inhibition % [9]: 4.87%; area under the curve ([10]; 10 mg/kg oral gavage): 3149 µg·h/mL; time of Cmax ([10]; 10 mg/kg oral gavage): 1 h; maximum concentration (Cmax) ([10]; 10 mg/kg oral gavage in saline, n = 4): 967 ng/mL |
| COc1ccc(N2CCOCC2)c(NC(=O)NCC(c2ccncc2)N(C)C)c1 (stereo not shown) [Compound 10h, 1-(2-(Dimethylamino)-2-(pyridin-4-yl)ethyl)-3-(5-methoxy-2-morpholinophenyl)urea] | 1.29±0.07 fold change |  |
| COCCOCCOc1ccc(N2CCOCC2)c(NC(=O)NCC(c2ccncc2)N(C)C)c1.Cl (stereo not shown) [Compound 10kHCl, 1-(2-(Dimethylamino)-2-(pyridin-4-yl)ethyl)-3-(5-(2-(2-methoxyethoxy)ethoxy)-2-morpholinophenyl)urea hydrochloric salt] |  | Solubility [3]: 1018 µg/mL; Clint [6]: 93.0 uL/min/mg protein; MLM t1/2 [6]: 14.9 min; wound closure with proliferation inhibited [7]: accelerated; EC50 [7]: 3.01 ± 0.51 nM; hERG Inhibition % [9]: 0.608% |
| CN(C)C(CNC(=O)Nc1cc(C(F)(F)F)ccc1N1CCOCC1)c1cccnc1.Cl (stereo not shown) [Compound 5bHCl, 1-(2-(Dimethylamino)-2-(pyridin-3-yl)ethyl)-3-(2-morpholino-5-(trifluoromethyl)phenyl)urea hydrochloric salt] | 1.05±0.06 fold change |  |
| CN(C)C(CNC(=O)Nc1cc(F)ccc1N1CCOCC1)c1ccncc1.Cl (stereo not shown) [Compound 10bHCl, 1-(2-(Dimethylamino)-2-(pyridin-4-yl)ethyl)-3-(5-fluoro-2-morpholinophenyl)urea hydrochloric salt] | 1.39 fold change | Solubility [3]: 985 µg/mL; Clint [6]: > 307 uL/min/mg protein; MLM t1/2 [6]: <4.51 min; wound closure with proliferation inhibited [7]: accelerated; EC50 [7]: 2.36 ± 0.58 nM; FAK-Tyr-397/FAK fold change, ± SEM ([1]; 10 nM): 1.25 fold change; hERG Inhibition % [9]: 15.2% |
| CC(C)(CNC(=O)Nc1cc(C(F)(F)F)ccc1N1CCOCC1)c1ccncc1 [Compound 6, 1-(2-Methyl-2-(pyridin-4-yl)propyl)-3-(2-morpholino-5-(trifluoromethyl)phenyl)urea] | 1.09±0.12 fold change |  |
